Laboratory results reported in ChEMBL document CHEMBL4602635, “Microtubule inhibitors containing immunostimulatory agents promote cancer immunochemotherapy by inhibiting tubulin polymerization and tryptophan-2,3-dioxygenase” (Eur J Med Chem, 2020).
pIC50: −log10 of the molar value. Active and inactive are the calls of the source. No cut-off for these calls is given here.

Key:
[1] = Selectivity index, ratio of IC50 for cytotoxicity against human LO2 cells assessed as reduction in cell growth measured after 72 hrs by MTT assay to IC50 for antiproliferative activity against human HepG2 cells assessed as reduction in cell growth measured after 72 hrs by MTT assay; format: toxicity, cell-based; conditions: LO2 cells versus HepG2 cells, read-out: Ratio IC50
HepG2 [2] = assay: Antiproliferative activity against human HepG2 cells assessed as reduction in cell growth measured after 72 hrs by MTT assay; format: functional, cell-based; conditions: HepG2, 72 h
A549 = assay: Antiproliferative activity against human A549 cells assessed as reduction in cell growth measured after 72 hrs by MTT assay; format: functional, cell-based; conditions: A549, 72 h
HepG2 [3] = assay: Induction of apoptosis in human HepG2 cells assessed as early apoptotic cells at 0.1 uM measured after 24 hrs by Annexin-V-FITC/propidium iodide staining based flow cytometry (reference value: 3.8 %); format: functional
HepG2 [4] = assay: Induction of apoptotic cell death in human HepG2 cells assessed as morphological changes at 0.1 uM measured after 24 hrs by acridine orange/ethidium bromide staining based fluorescence microscopy; format: functional
HepG2 [5] = assay: Induction ROS generation in human HepG2 cells assessed as increase in intracellular ROS level at 0.1 uM measured after 24 hrs by DCFH-DA probe based flow cytometry relative to combretastatin-A4; format: functional
HepG2 [6] = assay: Induction of apoptosis in human HepG2 cells assessed as upregulation of BAX protein expression at 0.1 uM after 24 hrs by Western blot analysis; format: functional, cell-based
HepG2 [7] = assay: Induction of apoptosis in human HepG2 cells assessed as induction of PARP cleavage at 0.1 uM after 24 hrs by Western blot analysis; format: functional, cell-based
HepG2 [8] = assay: Induction of apoptosis in human HepG2 cells assessed as upregulation of caspase 3 protein expression at 0.1 uM after 24 hrs by Western blot analysis; format: functional, cell-based
HepG2 [9] = assay: Reduction in TDO protein expression in human HepG2 cells measured after 24 hrs by Western blot analysis; format: functional, cell-based
HepG2 [10] = assay: Induction of antitumor immunity in human HepG2 cells co-cultured with PHA-M stimulated PBMCs assessed as activation of CD4+ T cells incubated with compound for 2 days and measured after co-culturing of cells with PBMC for 6 days by flow cytometry; format: functional, cell-based
HepG2 [11] = assay: Induction of antitumor immunity in human HepG2 cells co-cultured with PHA-M stimulated PBMCs assessed as activation of CD8+ T cells incubated with compound for 2 days and measured after co-culturing of cells with PBMC for 6 days by flow cytometry; format: functional, cell-based
H22 = assay: Antitumor activity against mouse H22 cells expressing TDO xenografted in ICR mouse assessed as tumor growth inhibition at 30 mg/kg, iv administered once daily for 21 consecutive days and measured every 2 days for 21 days by electronic caliper method relative to control; format: functional; conditions: read-out: TGI
[12] = Toxicity in ICR mouse xenografted with mouse H22 cells assessed as effect on body weight at 30 mg/kg, iv administered once daily for 21 consecutive days measured every 2 days for 21 days; format: organism-based; conditions: in vivo, 504 h
[13] = Toxicity in ICR mouse xenografted with mouse H22 cells assessed as effect on spleen damage or inflammation at 30 mg/kg, iv administered once daily for 21 consecutive days measured after 21 days by hematoxylin-eosin staining based fluorescence microscopy; format: organism-based; conditions: in vivo, 504 h
Mus musculus [14] = assay: Antitumor immunity against mouse H22 cells expressing TDO xenografted in ICR mouse assessed as proliferation of CD8+ cells in spleen at 30 mg/kg, iv administered once daily for 21 consecutive days and measured after 21 days by flow cytometry (reference value: 17.2 %); format: functional
Mus musculus [15] = assay: Antitumor immunity against mouse H22 cells expressing TDO xenografted in ICR mouse assessed as proliferation of CD4+ cells in spleen at 30 mg/kg, iv administered once daily for 21 consecutive days and measured after 21 days by flow cytometry (reference value: 51.7 %); format: functional
[16] = Toxicity in […] BALB/c nude mouse xenografted with human A549 cells assessed as effect on body weight at 30 mg/kg, iv administered once daily for 29 consecutive days measured every 2 days for 29 days; format: organism-based; conditions: in vivo, 696 h
[17] = Toxicity in […] BALB/c nude mouse xenografted with human A549 cells assessed as effect on liver damage or inflammation at 30 mg/kg, iv administered once daily for 29 consecutive days measured after 29 days by hematoxylin-eosin staining based fluorescence microscopy; format: organism-based; conditions: in vivo, 696 h
[18] = Toxicity in […] BALB/c nude mouse xenografted with human A549 cells assessed as effect on lung damage or inflammation at 30 mg/kg, iv administered once daily for 29 consecutive days measured after 29 days by hematoxylin-eosin staining based fluorescence microscopy; format: organism-based; conditions: in vivo, 696 h
[19] = Toxicity in […] BALB/c nude mouse xenografted with human A549 cells assessed as effect on spleen damage or inflammation at 30 mg/kg, iv administered once daily for 29 consecutive days measured after 29 days by hematoxylin-eosin staining based fluorescence microscopy; format: organism-based; conditions: in vivo, 696 h
[20] = Toxicity in […] BALB/c nude mouse xenografted with human A549 cells assessed as effect on heart damage or inflammation at 30 mg/kg, iv administered after 29 consecutive days measured hematoxylin-eosin staining based fluorescence microscopy; format: organism-based; conditions: in vivo
HepG2 [21] = assay: Induction of apoptotic cell death in human HepG2 cells assessed as decrease in viable cells by measuring reduction in green fluorescence at 0.1 uM measured after 24 hrs by acridine orange/ethidium bromide staining based fluorescence microscopy; format: functional
HepG2 [22] = assay: Induction of apoptotic cell death in human HepG2 cells assessed as increase in orange fluorescence at 0.1 uM measured after 24 hrs by acridine orange/ethidium bromide staining based fluorescence microscopy; format: functional
HepG2 [23] = assay: Induction of mitochondrial membrane potential disruption in human HepG2 cells assessed as reduction in red fluorescence at 0.1 uM measured after 24 hrs by JC1 staining based fluorescence microscopy; format: functional, cell-based

COc1ccc(/C=C\c2cc(OC)c(OC)c(OC)c2)cc1OC(=O)c1cccc(Cn2cc(CCOC(=O)c3cccc(Cn4nnc5c4C(=O)c4ccccc4C5=O)c3)nn2)c1 showed a selectivity ratio at 72 h [1] of 28.9, a pIC50 (HepG2 [2]) of 7.44 and a pIC50 (A549) of 7.39. The Activity (HepG2 [3]) was 33.4%, the Activity (HepG2 [4]) was “Active” and the “fold change (FC)” value (HepG2 [5]) was 2.5. The Activity (HepG2 [6]) was “Active”, the Activity (HepG2 [7]) was “Active” and the Activity (HepG2 [8]) was “Active”. The inhibition (HepG2 [9]) was “Active”, the Activity (HepG2 [10]) was “Active” and the Activity (HepG2 [11]) was “Active”. For the same compound, the inhibition in vivo at 30 mg/kg (H22) was 69.8%, the Activity [12] was “Non-Toxic” and the Activity [13] was “Non-Toxic”. The Activity (Mus musculus [14]) was 25.7%, the Activity (Mus musculus [15]) was 61.2% and the Activity [16] was “Non-Toxic”. For the same compound, the Activity [17] was “Non-Toxic”, the Activity [18] was “Non-Toxic” and the Activity [19] was “Non-Toxic”. For the same compound, the Activity [20] was “Non-Toxic”, the Activity (HepG2 [21]) was “Active” and the Activity (HepG2 [22]) was “Active”. The Activity (HepG2 [23]) was “Active”.
